PubChem BioAssay (NCI)
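Results reflect a 48-hour exposure of cells in 96-well plates to compound at five concentrations. TGI denotes the concentration required for complete inhibition of growth.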

What was measured:
Assay in all cases: NCI-60 cell line screen, 48 h
SNB-78 CNS = system: SNB-78 CNS
DMS 114 small cell lung = system: DMS 114 small cell lung
U251 CNS = system: U251 CNS
UO-31 renal = system: UO-31 renal
XF 498 CNS = system: XF 498 CNS
KM20L2 colon = system: KM20L2 colon
M19-MEL melanoma = system: M19-MEL melanoma
DMS 273 small cell lung = system: DMS 273 small cell lung
LXFL 529 NSCLC = system: LXFL 529 NSCLC
HOP-18 NSCLC = system: HOP-18 NSCLC
DLD-1 colon = system: DLD-1 colon
RXF-631 renal = system: RXF-631 renal

| Structure (SMILES) | TGI (SNB-78 CNS) [µM] | TGI (DMS 114 small cell lung) [µM] | TGI (U251 CNS) [µM] | TGI (UO-31 renal) [µM] | TGI (XF 498 CNS) [µM] | TGI (KM20L2 colon) [µM] | TGI (M19-MEL melanoma) [µM] | TGI (DMS 273 small cell lung) [µM] | TGI (LXFL 529 NSCLC) [µM] | TGI (HOP-18 NSCLC) [µM] | TGI (DLD-1 colon) [µM] | TGI (RXF-631 renal) [µM] |
| --- | --- | --- | --- | --- | --- | --- | --- | --- | --- | --- | --- | --- |
| CCCCc1c2c(nc3c1CCC/C3=C\c1ccccc1)C(=O)C(CN(C)C)CC2 (stereo not drawn) | 45.6 | 34.8 | 32.5 | 33.7 | 28.2 | 35.6 | 32 | 41.1 | 21 | 38.5 | 33.4 | – |
| CCN(CC)Cc1cc(Nc2c3ccccc3nc3c2[nH]c2ccccc23)ccc1O | 4.87 | 3.14 | 2.79 | 3.56 | 3.18 | 2.41 | 3.04 | 1.84 | 3.02 | 5.39 | 5.7 | 4.37 |
